Earlier results, collected in US20120087963A1, “DISINFECTANT COMPOSITION COMPRISING A BIGUANIDE COMPOUND” (BIO TECHNICS LIMITED, priority 2009, published 2012).

Tested on: bacteria
Details: typical, of the order of

polyaminopropyl biguanide [PAPB]
Bactericidal concentration: ~10 mg/L
